# Molecular target: T1, 3-hydroxy-3-methyl-glutaryl-coenzyme A (HMG-CoA) reductase (Rattus norvegicus, UniProt P51639)
# T1 construct: the livers were removed from the animals and placed on ice; from tissue; host or cells: liver of male Rico rats fed colestyramine; 100,000 g (microsomal) pellet, frozen at -78° C
# T1 sequence (P51639 1-887): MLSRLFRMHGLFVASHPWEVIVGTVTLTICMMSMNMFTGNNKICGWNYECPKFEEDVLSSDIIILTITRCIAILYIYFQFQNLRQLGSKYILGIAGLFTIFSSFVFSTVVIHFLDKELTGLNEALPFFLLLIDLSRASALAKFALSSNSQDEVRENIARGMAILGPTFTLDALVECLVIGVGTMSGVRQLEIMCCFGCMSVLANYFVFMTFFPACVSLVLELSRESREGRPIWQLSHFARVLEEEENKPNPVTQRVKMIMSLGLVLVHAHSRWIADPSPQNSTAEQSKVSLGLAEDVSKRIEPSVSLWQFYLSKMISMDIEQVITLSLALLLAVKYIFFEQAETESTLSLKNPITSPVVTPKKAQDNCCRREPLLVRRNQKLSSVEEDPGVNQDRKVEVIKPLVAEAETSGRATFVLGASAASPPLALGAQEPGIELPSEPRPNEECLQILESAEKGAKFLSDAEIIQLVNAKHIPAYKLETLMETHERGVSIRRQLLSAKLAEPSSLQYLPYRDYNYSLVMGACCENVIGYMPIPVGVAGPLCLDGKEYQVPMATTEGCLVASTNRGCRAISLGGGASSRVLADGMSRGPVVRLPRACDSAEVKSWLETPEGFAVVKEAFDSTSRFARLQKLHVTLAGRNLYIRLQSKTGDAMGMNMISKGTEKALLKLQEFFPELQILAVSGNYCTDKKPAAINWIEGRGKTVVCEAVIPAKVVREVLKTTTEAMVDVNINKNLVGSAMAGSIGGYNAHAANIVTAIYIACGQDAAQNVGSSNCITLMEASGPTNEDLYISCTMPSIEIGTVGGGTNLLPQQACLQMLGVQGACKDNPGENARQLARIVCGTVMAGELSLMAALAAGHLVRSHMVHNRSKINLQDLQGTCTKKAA
# Assay: enzyme activity determination, inhibition of HMG-CoA reductase relative to mevinolin
# Format: biochemical, Male Rico rats (liver)
# Details: relative inhibitory potency; IC50 of reference mevinolin set at 1 and compared with simultaneously determined IC50 of test compound; 20 min pre-incubation, 60 min at 37° C.
# Experimental: The enzyme activity determination was carried out as modified by G. C. Ness et al., Archives of Biochemistry and Biophysics 197, 493-499 (1979). Male Rico rats (body weight 300-400 g) were treated with altromin powdered feed, to which 40 g of colestyramine/kg of feed had been added, for 11 days. After decapitation, the livers were removed from the animals and placed on ice. The livers were comminuted and homogenized 3 times in a Potter-Elvejem homogenizsr in 3 volumes of 0.1 M sucrose, 0.05 M KCl, 0.04 M Kx Hy phosphate, 0.03 M ethylene-diaminetetraacetic acid, 0.002 M dithiothreitol (SPE) buffer pH 7.2. The mixture was then centrifuged at 15,000 g for 15 minutes and the sediment was discarded. The supernatant was sedimented at 100,000 g for 75 minutes. The pellet was taken up in 1/4 volumes of SPE buffer, homogenized again and then centrifuged again at 100,000 g for 60 minutes. The pellet was taken up using a 5-fold amount of its volume of SPE buffer, homogenized and frozen and stored at -78° C. (=enzyme solution).
# For testing, the test compounds (or mevinolin as a reference substance) were dissolved in dimethylformamide with the addition of 5 vol. % of 1 N NaOH and employed in the enzyme test using 10 μl in various concentrations. The test was begun after 20 minutes pre-incubation of the compounds with the enzyme at 37° C. The test mixture amounted to 0.380 ml and contained 4 μmol of glucose 6-phosphate, 1.1 mg of bovine serum albumin, 2.1 μmol of dithiothreitol, 0.35 μmol of NADP, 1 unit of glucose 6-phosphate dehydrogenase, 35 μmol of Kx Hy phosphate pH 7.2, 20 μl of enzyme preparation and 56 nmol of 3-hydroxy-3-methyl--glutaryl coenzyme A (glutaryl-3-^14 C) of 100,000 dpm.
# After an incubation of 60 minutes at 37° C., the mixture was centrifuged and 600 μl of the supernatant was applied to a 0.7×4 cm column packed with a 5-chloride 100-200 mesh (anion exchanger). The column was washed with 2 ml of distilled water and 3 ml of Aquasol was added to the runnings plus washing water and counted in an LKB scintillation counter. IC50 values were determined by intrapolation by plotting the percentage inhibition against the concentration of the compound in the test. In order to determine the relative inhibitory potency, the IC50 value of the reference substance mevinolin was set at 1 and compared with the simultaneously determined IC50 value of the test compound.
row,SMILES,in vitro relative activity (Mevinolin = 1)
1,"COC(=O)C[C@H](O)C[C@H](O)/C=C/c1c(C(C)C)nc2[nH]ccc2c1-c1ccc(F)cc1 (relative stereo) [Example 1a, Methyl erythro-(E)-7-[4-(4-fluorophenyl)-6-isopropyl-1H-pyrrolo[2,3-b]pyridin-5-yl]3,5-dihydroxy-hept-6-enoate]",3
2,COC(=O)C[C@H](O)C[C@H](O)/C=C/c1c(C(C)C)nc2c(ccn2C)c1-c1ccc(F)cc1 (relative stereo) [Example 1b],3
3,COC(=O)C[C@H](O)C[C@H](O)/C=C/c1c(C(C)C)nc2c(ccn2C(C)C)c1-c1ccc(F)cc1 (relative stereo) [Example 1c],13
4,COC(=O)C[C@H](O)C[C@H](O)/C=C/c1c(C(C)C)nc2c(ccn2CC#N)c1-c1ccc(F)cc1 (relative stereo) [Example 1d],27
5,C#CCn1ccc2c(-c3ccc(F)cc3)c(/C=C/[C@@H](O)C[C@@H](O)CC(=O)OC)c(C(C)C)nc21 (relative stereo) [Example 1e],17
6,COC(=O)C[C@H](O)C[C@H](O)/C=C/c1c(C(C)C)nc2c(ccn2CCc2ccccc2)c1-c1ccc(F)cc1 (relative stereo) [Example 1f],17
7,COC(=O)C[C@H](O)C[C@H](O)/C=C/c1c(C(C)C)nc2c(ccn2Cc2ccccc2)c1-c1ccc(F)cc1 (relative stereo) [Example 1g],4
8,C=CCn1ccc2c(-c3ccc(F)cc3)c(/C=C/[C@@H](O)C[C@@H](O)CC(=O)OC)c(C(C)C)nc21 (relative stereo) [Example 1h],33
9,COC(=O)C[C@H](O)C[C@H](O)/C=C/c1c(C(C)C)nc2c(ccn2Cc2cccnc2)c1-c1ccc(F)cc1 (relative stereo) [Example 1i],9
10,COC(=O)C[C@H](O)C[C@H](O)/C=C/c1c(C(C)C)nc2c(ccn2CCC#N)c1-c1ccc(F)cc1 (relative stereo) [Example 1j],24

# The next lines start with the values.
row,in vitro relative activity (Mevinolin = 1),SMILES
1,3,"CC(C)c1nc2[nH]ccc2c(-c2ccc(F)cc2)c1/C=C/[C@@H](O)C[C@@H](O)CC(=O)O (relative stereo) [Example 2a, Sodium erythro-(E)-7-[4-(4-fluorophenyl)-6-isopropyl-1H-pyrrolo[2,3-b]pyridin-5-yl]-3,5-dihydroxy-hept-6-enoate]"
2,3,CC(C)c1nc2c(ccn2C)c(-c2ccc(F)cc2)c1/C=C/[C@@H](O)C[C@@H](O)CC(=O)O (relative stereo) [Example 2b]
3,3,CC(C)c1nc2c(ccn2C(C)C)c(-c2ccc(F)cc2)c1/C=C/[C@@H](O)C[C@@H](O)CC(=O)O (relative stereo) [Example 2c]
4,10,CC(C)c1nc2c(ccn2CCc2ccccc2)c(-c2ccc(F)cc2)c1/C=C/[C@@H](O)C[C@@H](O)CC(=O)O (relative stereo) [Example 2f]
5,2,CC(C)c1nc2c(ccn2Cc2ccccc2)c(-c2ccc(F)cc2)c1/C=C/[C@@H](O)C[C@@H](O)CC(=O)O (relative stereo) [Example 2g]
6,10,C=CCn1ccc2c(-c3ccc(F)cc3)c(/C=C/[C@@H](O)C[C@@H](O)CC(=O)O)c(C(C)C)nc21 (relative stereo) [Example 2h]

# — patent publication US5120782A, “Substituted pyrrolo-pyridines pharmaceuticals” (Bayer Aktiengesellschaft, priority 1990, dated 1992)
